In ChEMBL document CHEMBL1151024, “Synthesis and cardiotonic activity of 2,9-dihydro-6-(5-methyl-3-oxo-2,3,4,5-tetrahydropyridazin-6-yl)pyrazolo[4,3-b][1,4]benzoxazine” (Bioorg Med Chem Lett, 1993):
Values after ≈ are worked out from the molar mass of the structure shown.

Tests used:
[1] = Solubility in 1 M HCl; compound is insoluble; type: physicochemical; conditions: buffer
Canis familiaris [2] = experiment: Maximum increase in cardiac force at 75 ug/Kg was observed in an anesthetized dog model(iv); type: functional, Canis lupus familiaris
Canis familiaris [3] = experiment: The high peak activity was evaluated at a dose of 35 ug/kg intravenously in dog; type: functional, Canis lupus familiaris
Canis familiaris [4] = experiment: Tested for effective dose required to produce cardiotonic activity after intravenous administration in anesthetized dog model; type: functional; conditions: Canis lupus familiaris
[5] = Solubility in 1 M HCl; type: physicochemical; conditions: read-out: S
Canis familiaris [6] = experiment: The mean arterial blood pressure drop after administration was determined; type: functional, Canis lupus familiaris
Canis familiaris [7] = species: Canis familiaris; experiment: The differential (dp/dt) maximal rise in blood pressure with respect to time was evaluated; type: functional, Canis lupus familiaris

Row | Structure (SMILES) | S [1] | Increase (Canis familiaris [2]) [%] | Activity (Canis familiaris [3]) | ED50 (Canis familiaris [4]) [mg/kg] | solubility [5] [mg/mL] | Decrease in blood pressure (Canis familiaris [6]) [%] | Change (Canis familiaris [7]) [%]
1 | CC1CC(=O)NN=C1c1ccc2c(c1)OCC(=O)N2 (centres undefined) [BEMORADAN] | Insoluble | 127 | 200 | 0.0054 | – | – | –
2 | CC1CC(=O)NN=C1c1ccc2c(c1)Oc1cn[nH]c1N2 (centres undefined) | – | 256 | – | 0.015 | 0.3 (≈ 1060 µM) | 21 | 119
